Laboratory results published in patent US4044134A, “Fused pyrimidin-4(3H)-ones as antiallergy agents” (Pfizer Inc., priority 1976, dated 1977).
Counter-ions that a name gives are not always drawn. Like-named read-outs stand apart in the source and are kept apart here.

Test system: passive cutaneous anaphylaxis (PCA) reaction
Assay: passive cutaneous anaphylaxis (PCA) test, i.v. or oral administration
Type: in vivo, male Charles River Wistar rats
Details: Rattus norvegicus, read-out: degree (%) of protection, PCA test
Description: In the PCA test, normal animals are injected intradermally (i.d.) with antibodies contained in serum obtained from actively sensitized animals. The animals are then challenged intravenously with antigen mixed with a dye such as Evans' Blue. The increased capillary-permeability caused by the antigen-antibody reaction causes the dye to leak from the site of the antibody injection. The test animals are then asphyxiated and the intensity of the reaction determined by measuring the diameter and intensity of the blue coloration on the inner surface of the animals skin. […] The ability of agents to interfere with PCA reactions is measured in male Charles River Wistar rats, 170-210 g. […] Hyperimmune antisera to hen egg albumin is prepared according to Orange, et al., J. Exptl. […] Forty-eight hours prior to antigen challenge the reaginic antisera is injected intradermally (i.d.) into the shaved skin of a normal rat's back; 5 hours before challenge the hyperimmune antisera is similarly injected; 5 hours later, at a third site, 60 mcg. histamine dihydrochloride is injected i.d. as a check for antihistaminic and unspecific types of blockage; the compounds of the instant invention or saline are then administered i.v. and immediately followed by 2.5 mg. Evan's blue dye and 5 mg. egg albumin in saline. In the case of oral administration Evan's blue dye and egg albumen are given five minutes after administration of the drug. Thirty minutes later the animals are asphyxiated using chloroform and the skin of the back removed and reversed for observation. A score is assigned each injection site equal to the product of the diameter of the site in mm. and a grade of 0.1, 0.5, 1, 2, 3 or 4 proportional to intensity of dye coloration. The scores for a given injection site are summed for each group of 8 animals and compared to the saline treated controls. The difference is expressed as percent blockade due to the compound employed. […] Disodium cromoglycate, a commerial antiallergy agent, is included for comparison. [drawing 3]

Row | SMILES | inhibition in vivo at 0.03 mg/kg (iv, I.V.) | inhibition in vivo at 3 mg/kg (iv, I.V.) | inhibition in vivo at 10 mg/kg (Oral) | inhibition in vivo at 0.3 mg/kg (iv, I.V.) | inhibition in vivo at 30 mg/kg (Oral) | further results
1 | CCOC(=O)c1nc2nc3cc(OCC)c(OCC)cc3cc2c(=O)[nH]1 [COOC2 H5/H/H/OC2 H5/OC2 H5/H] | 60% | 100% | 81% |  |  | inhibition in vivo at 0.003 mg/kg (iv, I.V.): 21%; inhibition in vivo at 0.01 mg/kg (iv, I.V.): 43%; inhibition in vivo at 0.1 mg/kg (iv, I.V.): 90%; inhibition in vivo at 0.3 mg/kg (Oral): 42%; inhibition in vivo at 1 mg/kg (Oral): 40%; inhibition in vivo at 3 mg/kg (Oral): 64%
2 | CCOC(=O)c1nc2nc3cc(OCc4ccccc4)c(OCC)cc3cc2c(=O)[nH]1 [COOC2 H5/H/H/OC2 H5/OC7 H7/H] |  | 71% | 0% | 30% | 0% | inhibition in vivo at 0.1 mg/kg (iv, I.V.): 3%
3 | CCOC(=O)c1nc2nc3cc(OC)c(OCC)cc3cc2c(=O)[nH]1 [COOC2 H5/H/H/OC2 H5/OCH3/H] | 85% | 100% | 92% |  |  | inhibition in vivo at 0.003 mg/kg (iv, I.V.): 50%; inhibition in vivo at 0.01 mg/kg (iv, I.V.): 72%; inhibition in vivo at 0.1 mg/kg (iv, I.V.): 99%; inhibition in vivo at 0.3 mg/kg (Oral): 56%; inhibition in vivo at 1 mg/kg (Oral): 76%; inhibition in vivo at 3 mg/kg (Oral): 83%
4 | CCOC(=O)c1nc2nc3ccc(OCc4ccccc4)cc3cc2c(=O)[nH]1 [COOC2 H5/H/H/OC7 H7/H/H, ethyl 7-benzyloxypyrimido-[4,5-b]quinolin-4(3H) one-2-carboxylate] |  | 85% | 60% | 23% |  | inhibition in vivo at 3 mg/kg (Oral): 3%
5 | CCOC(=O)c1nc2nc3ccc(OC)cc3cc2c(=O)[nH]1 [COOC2 H5/H/H/OCH3/H/H, Ethyl 7-Methoxypyrimido[4,5-b]-Quinolin-4(3H)-One-2-Carboxylate] |  | 100% | 43% | 87% |  | inhibition in vivo at 0.1 mg/kg (iv, I.V.): 68%; inhibition in vivo at 3 mg/kg (Oral): 32%
6 | CCOC(=O)c1nc2nc3c(OC)cc(OC)cc3cc2c(=O)[nH]1 [COOC2 H5/H/H/OCH3/H/OCH3] | 14% | 97% |  | 38% | 41% | 
7 | CCOC(=O)c1nc2nc3cc(OCC)c(OC)cc3cc2c(=O)[nH]1 [COOC2 H5/H/H/OCH3/OC2 H5/H, Ethyl 7-methoxy-8-ethoxypyrimido[4,5-b]quinoline-4(3H)-one-2-carboxylate] | 85% | 97% | 73% |  | 80% | inhibition in vivo at 0.003 mg/kg (iv, I.V.): 66%; inhibition in vivo at 0.01 mg/kg (iv, I.V.): 57%; inhibition in vivo at 0.1 mg/kg (iv, I.V.): 94%; inhibition in vivo at 0.3 mg/kg (Oral): 31%; inhibition in vivo at 1 mg/kg (Oral): 44%; inhibition in vivo at 3 mg/kg (Oral): 52%
8 | CCOC(=O)c1nc2nc3cc(OCc4ccccc4)c(OC)cc3cc2c(=O)[nH]1 [COOC2 H5/H/H/OCH3/OC7 H7/H, ethyl 7-methoxy-8-benzyloxypyrimido[4,5-b]quinolin-4(3H)one-2-carboxylate] |  | 94% |  | 23% |  | 
9 | CCOC(=O)c1nc2nc3c(OC)c(OC)c(OC)cc3cc2c(=O)[nH]1 [COOC2 H5/H/H/OCH3/OCH3/OCH3] | 33% | 88% | 0% | 23% |  | 
10 | CCOC(=O)c1nc2nc3cc(O)c(OC)cc3cc2c(=O)[nH]1 [COOC2 H5/H/H/OCH3/OH/H, Ethyl 7-Methoxy-8-Hydroxypyrimido[4,5-b]Quinolin-4(3H)One-2-Carboxylate] |  | 100% |  | 100% |  | inhibition in vivo at 0.003 mg/kg (iv, I.V.): 0%
11 | CCOC(=O)c1nc2nc3ccc(O)cc3cc2c(=O)[nH]1 [COOC2 H5/H/H/OH/H/H, ethyl 7-hydroxypyrimido [4,5-b]quinolin-4(3H)one-2-carboxylate hemitrifluoroacetate] | 21% |  | 13% | 92% |  | inhibition in vivo at 3 mg/kg (Oral): 4%
12 | CCOC(=O)c1nc2nc3cc(OC)c(O)cc3cc2c(=O)[nH]1 [COOC2 H5/H/H/OH/OCH3/H, Ethyl 7-Hydroxy-8-Methoxypyrimido[4,5-b]Quinolin-4(3H)One-2-Carboxylate Trifluoroacetate] | 97% |  |  |  | 6% | inhibition in vivo at 0.0003 mg/kg (iv, I.V., 0.0003 mg/kg): 38%; inhibition in vivo at 0.003 mg/kg (iv, I.V.): 94%; inhibition in vivo at 0.01 mg/kg (iv, I.V.): 98%
13 | CCOC(=O)c1nc2nc3ccc(SC)cc3cc2c(=O)[nH]1 [COOC2 H5/H/H/SCH3/H/H, Ethyl 7-Methylthiopyrimido[4,5-b]quinolin-4(3H)-One-2-Carboxylate] | 8% | 88% | 66% | 91% | 100% | inhibition in vivo at 1 mg/kg (Oral): 0%; inhibition in vivo at 3 mg/kg (Oral): 21%
14 | CCOC(=O)c1nc2nc3ccc([S+](C)[O-])cc3cc2c(=O)[nH]1 (stereo not drawn) [COOC2 H5/H/H/SOCH3/H/H, Ethyl 7-Methylsulfinylpyrimido[4,5-b]quinoline-4(3H)-One-2-Carboxylate] | 0% | 100% |  | 58% | 12% | 
15 | CCOC(=O)c1nc2nc3c(OC)ccc(OC)c3cc2c(=O)[nH]1 [COOC2 H5/H/OCH3/H/H/OCH3] | 0% | 100% |  | 25% | 23% | 
16 | COc1cc2cc3c(=O)[nH]c(C(=O)OCCO)nc3nc2cc1OC [COOCH2 CH2 OH/H/H/OCH3/OCH3/H, 2-hydroxyethyl 7,8-Dimethoxy-pyrimidin[4,5-b]quinolin-4-(3H)-One-2-Carboxylate] | 92% | 97% | 65% | 94% |  | 
17 | O=C(O)c1nc2cc3ccccc3cc2c(=O)[nH]1 [COOH/H/H/H/H (Formula II)] |  | 36% | 33% |  | 0% | inhibition in vivo at 1 mg/kg (iv, I.V.): 14%; inhibition in vivo at 10 mg/kg (iv, I.V.): 100%; inhibition in vivo at 100 mg/kg (Oral): 9%
18 | O=C(O)c1nc2nc3ccc(O)cc3cc2c(=O)[nH]1 [COOH/H/H/OH/H/H, 7-hydroxypyrimido[4,5-b]quinolin-4(3H)one-2-carboxylic acid] | 91% | 100% |  |  |  | inhibition in vivo at 0.003 mg/kg (iv, I.V.): 4%
19 | COc1cc2nc3nc(C(=O)O)[nH]c(=O)c3cc2cc1O [COOH/H/H/OH/OCH3/H, 7-Hydroxy-8-Methoxypyrimido[4,5-b]Quinolin-4(3H)One-2-Carboxylic Acid] |  | 100% |  |  |  | inhibition in vivo at 0.003 mg/kg (iv, I.V.): 90%; inhibition in vivo at 0.01 mg/kg (iv, I.V.): 86%
20 | O=C(O)c1nc2nc3ccccc3cc2c(=O)[nH]1 [COONa/H/H/H/H/H, Pyrimido[4,5-b]Quinolin-4(3H)-One-2-Carboxylic Acid Disodium Salt] |  |  | 0% | 68% |  | inhibition in vivo at 1 mg/kg (iv, I.V.): 92%; inhibition in vivo at 100 mg/kg (Oral): 96%
21 | COc1cc2cc3c(=O)[nH]c(C(=O)O)nc3nc2cc1OC [COONa/H/H/OCH3/OCH3/H] | 96% |  | 17% |  |  | inhibition in vivo at 0.01 mg/kg (iv, I.V.): 71%; inhibition in vivo at 0.1 mg/kg (iv, I.V.): 100%
22 | CCOC(=O)CNC(=O)c1nc2nc3cc(OC)c(OC)cc3cc2c(=O)[nH]1 [N-carbethoxymethyl 7,8-dimethoxypyrimido-[4,5-b]quinolin-4(3H)-one-2-carboxamide] |  | 32% |  |  |  | inhibition in vivo at 30 mg/kg (iv, I.V.): 96%
23 | CCOC(=O)c1nc2ncccc2c(=O)[nH]1 [OC2 H5/H/H/H (Formula III), Ethyl Pyrido[2,3-d]Pyrimidin-4(3H)-One-2-Carboxylate] |  |  |  |  |  | inhibition in vivo at 10 mg/kg (iv, I.V.): 95%; inhibition in vivo at 100 mg/kg (Oral): 0%
24 | O=c1[nH]cnc2nc3ccccc3cc12 [pyrimido[4,5-b]quinolin-4(3H)-one, reference compound] |  | 33% |  |  |  | 
